The values below come from paper PMC8911181, “A Novel CDK4/6 and PARP Dual Inhibitor ZC-22 Effectively Suppresses Tumor Growth and Improves the Response to Cisplatin Treatment in Breast and Ovarian Cancer” (International Journal of Molecular Sciences, 2022).

The structures appear in SMILES notation.

One experiment has as its system PARP. The experiment is described as follows: Western blot of PAR, a direct product of PARP. To be noted: MDA-MB-231 (2 μM) and OVCAR5 (0.5 μM) cells, 48 h. It is filed as cell-based, human. How it is done:
Cells were washed with PBS, collected with scraper, and then lysed in RIPA buffer containing 1× protease and phosphatase inhibitors for 30 min on ice. The supernatants were collected by centrifugation at full speed for 10 min at 4 °C and subjected to SDS-PAGE followed by immunoblotting as described before. Signals were detected using enhanced chemiluminescence (Millipore, Burlington, MA, USA) and captured by the G: BOX Chemi XRQ gel doc System (Syngene, Cambridge, UK).
Figure 3 ZC-22 inhibits CDK4/6 and PARP to induce cell-cycle arrest, DNA damage, and apoptosis in breast and ovarian cancer cells. (A,B) MDA-MB-231 cells were treated with 2 μM LY2835219 (LY-2) or ZC-22. […] The levels of CDK4/6 and p-Rb/Rb were determined by Western blot (A). Cell-cycle distribution was analyzed by flow cytometry (B). […] (D,E) Representative pictures (left) and quantification of percentage (right) of γH2A.X-positive cells in MDA-MB-231 cells treated with 2 μM OLA or ZC-22 for 24 h (D), or OVCAR5 cells treated with 0.5 μM OLA or ZC-22 for 24 h (E). Values are means ± SD, n = 3. * p < 0.05, ** p < 0.01, and *** p < 0.001 for comparisons with the DMSO-treated group. p value was calculated using an unpaired t-test. […] Values are means ± SD, n = 3. * p < 0.05, ** p < 0.01, and *** p < 0.001 vs. the DMSO-treated group. p value was calculated using an unpaired t-test. […]

Experiment [1] concerns MDA-MB-231 and OVCAR5 cells. The experiment is described as follows: PI-based cell-cycle analysis by flow cytometry. More on the design: species or system human. To be noted: MDA-MB-231 (2 μM) and OVCAR5 (0.5 μM) cells; 24 h. How it is done:
MDA-MB-231 cells were treated with 2 μM LY2835219 or ZC-22, and OVCAR5 cells were treated with 0.5 μM LY2835219 or ZC-22 for 24 h. After washing in PBS, cells were fixed with 70% ethanol on ice for 2 h, followed by centrifugation at 300× g—for 20 min at 4 °C, and then subjected to a propidium iodide (PI, BD Biosciences, Franklin Lakes, NJ, USA) based cell-cycle analysis according to the manufacturer’s protocols. Cell-cycle distribution was analyzed by flow cytometry. Each experiment was performed in triplicates.
Figure 3 ZC-22 inhibits CDK4/6 and PARP to induce cell-cycle arrest, DNA damage, and apoptosis in breast and ovarian cancer cells. […] The levels of CDK4/6 and p-Rb/Rb were determined by Western blot (A). Cell-cycle distribution was analyzed by flow cytometry (B). […] (D,E) Representative pictures (left) and quantification of percentage (right) of γH2A.X-positive cells in MDA-MB-231 cells treated with 2 μM OLA or ZC-22 for 24 h (D), or OVCAR5 cells treated with 0.5 μM OLA or ZC-22 for 24 h (E). Values are means ± SD, n = 3. * p < 0.05, ** p < 0.01, and *** p < 0.001 for comparisons with the DMSO-treated group. p value was calculated using an unpaired t-test. (F,G) Representative pictures (F) and quantification of percentage (G) of apoptotic cells in MDA-MB-231 cells treated with 2 μM LY-2, OLA, or ZC-22 for 48 h or in OVCAR5 cells treated with 0.5 μM LY-2, OLA or ZC-22 for 48 h. […]

For the molecule `Cc1nc2c(F)cc(-c3nc(Nc4ccc(N5CCN(C(=O)c6cc(Cc7n[nH]c(=O)c8ccccc78)ccc6F)CC5)cn4)ncc3F)cc2n1C(C)C` [ZC-22, 4-(4-fluoro-3-(4-(6-((5-fluoro-4-(4-fluoro-1-isopropyl-2-methyl-1H-benzo[d]imidazole-6-yl)pyrimidin-2-yl)amino)pyridin-3-yl)piperazine-1-carbonyl)benzyl)phthalazin-1(2H)-one], the PAR expression entry in the experiment with PARP was “effectively inhibited PAR expression”. In addition, the cell-cycle distribution entry in experiment [1] is “dramatically arrested cell cycle at the G1/S check-point”.
